One test deals with IL-6. The test can be described thus: IL-6 inhibition in LPS-stimulated human peripheral blood mononuclear cells (HTRF). It counts as cell-based. As to conditions: Homo sapiens, PBMC; for pEC50: huPBMCs, LPS 50 ng/mL, 22 hours, IL-6 HTRF. The method, then: Fresh Normal PB MNC (Catalog #PB001, AllCells, Alameda, Calif.) were shipped overnight at 4° C. and resuspended in Roswell Park Memorial Institute (RPMI) 1640 Medium, with GlutaMAX Supplement (Catalog #61870127, ThermoFisher Scientific, Waltham, Mass.) supplemented with 1% Penicillin-Streptomycin (Catalog #15140163. ThermoFisher Scientific, Waltham, Mass.) and 1% fetal bovine serum (FBS) (Catalog #16140089, ThermoFisher Scientific, Waltham, Mass.) assay media. Fresh normal human peripheral blood mononuclear cells (huPBMCs) were resuspended in 1% FBS-RPMI assay media with 1% Penicillin-Streptomycin 1% to a cell concentration of 1×10e6 cells/mL. […] 50 ng/mL of Lipopolysaccharides from Escherichia coli 0111:B4 (Catalog #L5293-2ML, Sigma-Aldrich, St. Louis, Mo.) was added after 2 hours and cells were incubated for another 22 hours at 37° C.-5% CO2. After 22 hour incubation, a mixture of anti-IL6 XL665 and anti-IL-6 Cryptate diluted in reconstitution buffer (Catalog #62IL6PEC, Cisbio Inc., Bedford, Mass.) was added to each well. Following incubation for 3 hours at room temperature, Homogeneous Time-Resolved Fluorescence (HTRF) was measured using the Envision (Perkin Elmer, Shelton, Conn.) at 665 nm and […]. The ratio of fluorescence at 665 nm to 620 nm was used as a readout for IL-6 quantification. All samples were processed in duplicate. Readings were normalized to DMSO treated cells and normalized activities were utilized for EC50 calculations.

For test [1], the system named is primary human fibroblasts derived from IPF patients (LL29 cells). The experiment in a line: Inhibition of the fibrotic process: αSMA staining in TGF-β1 treated LL29 fibroblasts. The settings on record: Homo sapiens, Fibroblast, 96 h; LL29 cells, TGF-β1 20 ng/mL, 4 days, % αSMA positive cells. It counts as cell-based. The method, then: Representative compounds were screened using primary human fibroblasts (derived from IPF patients) treated with TGF-β1 to determine their ability to inhibit the fibrotic process.
LL29 cells were plated at 1,500 cells/well in 70 μL/well F12 medium supplemented with 1% Fetal Bovine Serum. […] Wells treated with TGF-β1 and containing DMSO were used as positive control, and cells with only DMSO were negative control. […] Following incubation for 4 days, SYTOX green nucleic acid stain (Life Technologies [Thermo Fisher Scientific]) was added to the wells at a final concentration of 1 μM and incubated at room temperature for 30 min.

Test [2] deals with SW480 colon carcinoma cells. The test can be described thus: Cell viability assay (CellTiter-Glo) in SW480 colon carcinoma cells. It counts as cell-based, human. The settings on record: Homo sapiens, 96 h, four days. How it is done: Representative compounds were screened using the assay procedure to assess the effect on cell viability as described below.
SW480 colon carcinoma cells were transduced with a lentiviral vector expressing luciferase with a human Sp5 promoter consisting of a sequence of eight TCF/LEF binding sites. SW480 cells stably expressing the Sp5-Luc reporter gene and a hygromycin resistance gene were selected by treatment with 150 μg/mL of hygromycin for 7 days. These stably transduced SW480 cells were expanded in cell culture and used for all further screening activities.
For the Cell Viability Assays, the cells were plated at 2,000 cells/well in 384-well plates with a DMEM medium containing 1% fetal bovine serum, and 1% Penicillin-Streptomycin and incubated for […] at 37° C. and 5% CO2. Eight replicates of DMSO-treated cells served as controls and cells treated with compound were performed in duplicate.
After incubation, 10 μL of CellTiter-Glo (Promega) was added to each well allowed to incubate for approximately 12 minutes. This reagent “results in cell lysis and generation of a luminescent signal proportional to the amount of ATP present. The amount of ATP is directly proportional to the number of cells present in culture, in agreement with previous reports. The CellTiter-Glo® Assay generates a “glow-type” luminescent signal, produced by the luciferase reaction (Promega.com)”.
A general note: Cellular ATP, detected with luciferase, serves as a proxy for viable cell number.

For test [3], the system named is Wnt activity (Sp5-Luc reporter in SW480 cells). The experiment in a line: Screening assay for Wnt activity: Sp5-Luc reporter gene assay in SW480 colon carcinoma cells. It counts as cell-based, human. The settings on record: Homo sapiens, 36 to 48 hours. An excerpt:
The screening assay for Wnt activity is described as follows. Reporter cell lines can be generated by stably transducing cancer cell lines (e.g., colon cancer) or primary cells (e.g., IEC-6 intestinal cells) with a lentiviral construct that includes a Wnt-responsive promoter driving expression of the firefly luciferase gene.
SW480 colon carcinoma cells were transduced with a lentiviral vector expressing luciferase with a human Sp5 promoter consisting of a sequence of eight TCF/LEF binding sites. SW480 cells stably expressing the Sp5-Luc reporter gene and a hygromycin resistance gene were selected by treatment with 150 μg/mL of hygromycin for 7 days. These stably transduced SW480 cells were expanded in cell culture and used for all further screening activities. […] For Sp5-Luc reporter gene assays, the cells were plated at 4,000 cells/well in 384-well plates with a DMEM medium containing 1% fetal bovine serum, and 1% Penicillin-Streptomycin and incubated for 36 to 48 hours at 37° C. and 5% CO2. Following incubation, 15 μl of BriteLite Plus luminescence reagent (Perkin Elmer) was added to each well of the 384-well assay plates. The plates were placed on an orbital shaker for 2 min and then luminescence was quantified using the Envision (Perkin Elmer) plate reader. Readings were normalized to DMSO only treated cells, and normalized activities were utilized for EC50 calculations using the dose-response log (inhibitor) vs. response-variable slope (four parameters) nonlinear regression feature available in GraphPad Prism 5.0 (or Dotmatics).
For orientation: In a reporter assay the amount or activity of a reporter protein is the signal.

The target of the next test is DYRK1A kinase (Homo sapiens (Human), UniProt Q13627). The experiment in a line: DYRK1A kinase assay (Ser/Thr 18 peptide Z-lyte FRET). It counts as biochemical. The settings on record: read-out: EC50 (method: IC50). How it is done: Representative compounds were screened using the assay procedure for DYRK1A kinase activity as described below.
This is a non-radioactive assay using fluorescence resonance energy transfer (FRET) between coumarin and fluorescein to detect kinase activity which is represented as a ratio of coumarin emission/fluorescein emission.
The mixture was allowed to incubate with the representative compounds for one hour at room temperature. All reactions were performed in duplicate. Unphosphorylated (“0% Control”) and phosphorylated (“100% control”) forms of Ser/Thr 18 served as control reactions. Additionally, an 11-point dose-response curve of Staurosporine (1 uM top) was run to serve as a positive compound control.
After incubation, Development Reagent A was diluted in Development Buffer then added to the reaction and allowed to further incubate for one hour at room temperature.

The target of the next test is GSK3β kinase (Homo sapiens (Human), UniProt P49841). The experiment in a line: GSK3β kinase assay (Ser/Thr 09 peptide Z-lyte FRET). It counts as biochemical. The settings on record: read-out: EC50 (method: IC50). How it is done:
Representative compounds were screened using the assay procedure for GSK3β kinase activity as described below.
This is a non-radioactive assay using fluorescence resonance energy transfer (FRET) between coumarin and fluorescein to detect kinase activity which is represented as ratio of coumarin emission/fluorescein emission.
The mixture is allowed to incubate with the representative compounds for one hour at room temperature. All reactions were performed in duplicate. Unphosphorylated (“0% Control”) and phosphorylated (“100% control”) forms of Ser/Thr 18 serve as control reactions.
After incubation, diluted Development Buffer is added to the reaction and allowed to further incubate for one hour at room temperature.
Dose-response curves are generated and inhibitory concentration (IC50) values are calculated using non-linear regression curve fit in the Dotmatics' Studies Software (Bishops Stortford, UK).

Each structure is given as a SMILES string. pEC50, pIC50: −log10 of the molar value.

GSK3β kinase, sequence (P49841 whole entry): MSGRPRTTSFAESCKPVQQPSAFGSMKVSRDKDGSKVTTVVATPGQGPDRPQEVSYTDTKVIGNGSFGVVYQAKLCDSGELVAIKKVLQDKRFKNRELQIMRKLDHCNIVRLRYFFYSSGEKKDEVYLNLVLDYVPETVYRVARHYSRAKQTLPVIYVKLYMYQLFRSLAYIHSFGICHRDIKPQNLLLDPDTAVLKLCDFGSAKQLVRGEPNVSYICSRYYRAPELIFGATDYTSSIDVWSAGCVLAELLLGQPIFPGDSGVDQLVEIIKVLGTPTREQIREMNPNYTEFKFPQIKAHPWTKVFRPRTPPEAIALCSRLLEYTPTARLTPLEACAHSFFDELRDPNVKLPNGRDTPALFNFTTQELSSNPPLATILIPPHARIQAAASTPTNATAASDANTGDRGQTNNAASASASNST

As a reminder, the pEC50 is −log10 of the EC50, conventionally taken in molar units. Low readings indicate a high EC50, high ones a low EC50. As a reminder, the pIC50 is the IC50 on a negative log10 scale, so that one unit is a factor of ten. As to `CC(C)CNC(=O)c1n[nH]c2ccc(-c3cn[nH]c3)cc12` [Compound 1, N-Isobutyl-5-(1H-pyrazol-4-yl)-1H-indazole-3-carboxamide], the negative-log EC50 (pEC50) is 5.93 in the test with IL-6, 6.80 in test [1], 5.59 in test [2] and 6.45 in test [3]. The pIC50 on DYRK1A kinase was 7.52; at GSK3β kinase, 7.55.
Regarding `CC(C)CNC(=O)c1n[nH]c2ccc(-c3cnn(C)c3)cc12` [Compound 2, N-Isobutyl-5-(1-methyl-1H-pyrazol-4-yl)-1H-indazole-3-carboxamide], the pEC50 in the test on IL-6 was 5.52; in test [1], 7.12; in test [2], 5.22; in test [3], 6.09. The pIC50 at DYRK1A kinase was 7.60; at GSK3β kinase, 7.96.
Turning to `C[C@@H](NC(=O)c1n[nH]c2ccc(-c3cnn(C)c3)cc12)C(F)(F)F` [Compound 3, (R)-5-(1-Methyl-1H-pyrazol-4-yl)-N-(1,1,1-trifluoropropan-2-yl)-1H-indazole-3-carboxamide], the pEC50 was 5.04 in the test on IL-6, 5.59 in test [1], 5.05 in test [2] and less than 5.00 in test [3]. Moreover, the pIC50 on DYRK1A kinase was 6.87; at GSK3β kinase, 6.97.
With `C[C@H](NC(=O)c1n[nH]c2ccc(-c3cnn(C)c3)cc12)C(F)(F)F` [Compound 4, (S)-5-(1-Methyl-1H-pyrazol-4-yl)-N-(1,1,1-trifluoropropan-2-yl)-1H-indazole-3-carboxamide], the pEC50 in the test on IL-6 is 5.54; in test [1], 6.77; in test [2] it was 5.59; in test [3], 5.42. For the same molecule, the pIC50 on DYRK1A kinase is 7.59; on GSK3β kinase, 7.62.
On to `Cn1cc(-c2ccc3[nH]nc(C(=O)NCCC(F)(F)F)c3c2)cn1` [Compound 5, 5-(1-Methyl-1H-pyrazol-4-yl)-N-(3,3,3-trifluoropropyl)-1H-indazole-3-carboxamide], for which the negative logarithm of the EC50 (pEC50) is 5.53 in the test with IL-6, 6.82 in test [1], 5.60 in test [2] and 6.18 in test [3]. Besides, the pIC50 on DYRK1A kinase is 7.60; at GSK3β kinase, 8.10.
For orientation: inhibition means the drop in the measured response relative to a control, in per cent. For `Cn1cc(-c2cc(F)c3[nH]nc(C(=O)NCCC(F)(F)F)c3c2)cn1` [Compound 6, 7-Fluoro-5-(1-methyl-1H-pyrazol-4-yl)-N-(3,3,3-trifluoropropyl)-1H-indazole-3-carboxamide], the pEC50 in the test with IL-6 is less than 5.00; in test [1], 6.83; in test [2], 6.13; in test [3], 6.49. In addition, the inhibition at 10 µM in the test with IL-6 (read-out: percent inhibition at 10 μM) was determined as 37.8%. In addition, the negative-log IC50 (pIC50) on DYRK1A kinase is 6.68; on GSK3β kinase it was 7.82.
Take `CC(C)NC(=O)c1n[nH]c2ccc(-c3cnn(C4CCNCC4)c3)cc12` [Compound 7, N-Isopropyl-5-(1-(piperidin-4-yl)-1H-pyrazol-4-yl)-1H-indazole-3-carboxamide]: the negative logarithm of the EC50 (pEC50) is 5.70 with IL-6, less than 5.00 in test [1], 5.25 in test [2] and 5.59 in test [3]. Besides, the negative logarithm of the IC50 (pIC50) at DYRK1A kinase is 7.26; on GSK3β kinase, 6.59.
In the case of `Cn1cc(-c2ccc3[nH]nc(C(=O)NCC4CCC(F)(F)CC4)c3c2)cn1` [Compound 8, N-((4,4-Difluorocyclohexyl)methyl)-5-(1-methyl-1H-pyrazol-4-yl)-1H-indazole-3-carboxamide], the negative logarithm of the EC50 (pEC50) is 5.47 with IL-6, 6.84 in test [1], 6.29 in test [2] and 6.25 in test [3]. The results for the pIC50 on DYRK1A kinase and at GSK3β kinase were 7.51 and 7.66, respectively.
As for `Cn1cc(-c2ccc3[nH]nc(C(=O)N[C@@H]4CCCC[C@H]4F)c3c2)cn1` [Compound 9, N-((1R,2R)-2-Fluorocyclohexyl)-5-(1-methyl-1H-pyrazol-4-yl)-1H-indazole-3-carboxamide], the pEC50 was 5.96 in the test on IL-6, 6.49 in test [1], 5.88 in test [2] and 5.70 in test [3]. For the same molecule, the negative logarithm of the IC50 (pIC50) on DYRK1A kinase was 7.74; on GSK3β kinase, 8.22.
As to `Cn1cc(-c2cc3c(C(=O)N[C@@H]4CCCC[C@H]4F)n[nH]c3cc2F)cn1` [Compound 10, 6-Fluoro-N-((1R,2R)-2-fluorocyclohexyl)-5-(1-methyl-1H-pyrazol-4-yl)-1H-indazole-3-carboxamide], the pEC50 is 6.04 in the test with IL-6, 6.48 in test [1], 5.97 in test [2] and 5.47 in test [3]. Moreover, the negative-log IC50 (pIC50) is 7.80 at DYRK1A kinase and 8.05 at GSK3β kinase.
Consider `Cn1cc(-c2cc(F)c3[nH]nc(C(=O)N[C@@H]4CCCC[C@H]4F)c3c2)cn1` [Compound 11, 7-Fluoro-N-((1R,2R)-2-fluorocyclohexyl)-5-(1-methyl-1H-pyrazol-4-yl)-1H-indazole-3-carboxamide], for which the negative logarithm of the EC50 (pEC50) was 5.48 in the test on IL-6, less than 5.00 in test [1], 5.71 in test [2] and less than 5.00 in test [3]. The negative-log IC50 (pIC50) at DYRK1A kinase is 6.70; at GSK3β kinase, 7.70.
Regarding `Cn1cc(-c2cc3c(C(=O)Nc4ccc(CN5CCOCC5)cc4)n[nH]c3cc2F)cn1` [Compound 77, 6-Fluoro-5-(1-methyl-1H-pyrazol-4-yl)-N-(4-(morpholinomethyl)phenyl)-1H-indazole-3-carboxamide], the results for the negative-log EC50 (pEC50) in test [1], in test [2] and in test [3] were 6.54, 5.55 and 6.39, respectively. The results for the pIC50 on DYRK1A kinase and on GSK3β kinase were 8.40 and 7.59, respectively.

These data come from US10934297B2, “5-heteroaryl substituted indazole-3-carboxamides and preparation and use thereof” (Samumed, LLC, priority 2018, dated 2021).
